Source: the supplement of paper PMC4932681
Counter-ions that a name gives are not always drawn.

Assays:
Assay in all cases: viability inhibition at highest dose (% inhibition); higher = more growth inhibition
BT-474 = conditions: 72 h
Protocol: (§1)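 Percent inhibition of viability (CellTiter-Glo, 72 h) at the highest tested concentration (D5), normalised to DMSO (0%) and 100 µM benzethonium chloride (100%). Resistant lines and the 'in 1µM tamoxifen' arms were tested in 1 µM 4-OH-tamoxifen.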

T-47D Tam1 = conditions: 4-OH-tamoxifen in medium 1 µM; 72 h
Protocol: as §1

ZR-75-1 Tam2 = conditions: 4-OH-tamoxifen in medium 1 µM; 72 h
Protocol: as §1

ZR-75-1 = conditions: 72 h
Protocol: as §1

ZR-75-1 Tam1 = conditions: 4-OH-tamoxifen in medium 1 µM; 72 h
Protocol: as §1

T-47D = conditions: 72 h
Protocol: as §1

MCF-7 = conditions: 72 h
Protocol: as §1

BT-474 Tam1 = conditions: 4-OH-tamoxifen in medium 1 µM; 72 h
Protocol: as §1

T-47D Tam2 = conditions: 4-OH-tamoxifen in medium 1 µM; 72 h
Protocol: as §1

MCF-7 Tam1 = conditions: 4-OH-tamoxifen in medium 1 µM; 72 h
Protocol: as §1

BT-474 Tam2 = conditions: 4-OH-tamoxifen in medium 1 µM; 72 h
Protocol: as §1

| Structure (SMILES) | viability inhibition at highest dose (BT-474; 4-OH-tamoxifen in medium 0 µM) | viability inhibition at highest dose (BT-474; 4-OH-tamoxifen in medium 1 µM) | viability inhibition at highest dose (T-47D Tam1) | viability inhibition at highest dose (ZR-75-1 Tam2) | viability inhibition at highest dose (ZR-75-1; 4-OH-tamoxifen in medium 0 µM) | viability inhibition at highest dose (ZR-75-1; 4-OH-tamoxifen in medium 1 µM) | viability inhibition at highest dose (ZR-75-1 Tam1) | viability inhibition at highest dose (T-47D; 4-OH-tamoxifen in medium 0 µM) | viability inhibition at highest dose (T-47D; 4-OH-tamoxifen in medium 1 µM) | viability inhibition at highest dose (MCF-7; 4-OH-tamoxifen in medium 0 µM) | viability inhibition at highest dose (MCF-7; 4-OH-tamoxifen in medium 1 µM) | viability inhibition at highest dose (BT-474 Tam1) | viability inhibition at highest dose (T-47D Tam2) | viability inhibition at highest dose (MCF-7 Tam1) | viability inhibition at highest dose (BT-474 Tam2) |
| --- | --- | --- | --- | --- | --- | --- | --- | --- | --- | --- | --- | --- | --- | --- | --- |
| C[C@]12C=CC(=O)C=C1CC[C@@H]1[C@@H]2C(=O)C[C@@]2(C)[C@H]1CC[C@]2(O)C(=O)CO [Prednisone] (drug 10000 nM) | -5.13 | -15.9 | 0.12 | 5.99 | -12.2 | -9.15 | -0.823 | -2.36 | -14.5 | 4.17 | -2.57 | 0.805 | 6.96 | -6.7 | -4.01 |
| COCC1(CO)C(=O)C2CCN1CC2 (stereo not given) [Prima-1 Met] (drug 10000 nM) | -9.27 | -13.3 | 1.75 | 17.7 | -1.59 | -9.16 | -1.64 | -7.38 | -11.1 | 10.8 | 3.83 | -5.47 | -9.64 | -10.1 | 0.869 |
| CNNCc1ccc(C(=O)NC(C)C)cc1 [Procarbazine] (drug 10000 nM) | -6.73 | -0.151 | 0.22 | -4.74 | -8.18 | 1.35 | 5.75 | -8.64 | 3.29 | -15.7 | -26.1 | 3.72 | 18.8 | -2.96 | -9.69 |
| CC(C)(C)c1cc(NC(=O)Nc2ccc(-c3cn4c(n3)sc3cc(OCCN5CCOCC5)ccc34)cc2)no1 [Quizartinib (AC220)] (drug 1000 nM) | -0.626 | -13.2 | 11.5 | 5.08 | -17 | 8.56 | -2.41 | 11 | 9.31 | -2.81 | 6.24 | -3.77 | 15.8 | 3.09 | -5.01 |
| Cn1c(Nc2ccc(C(F)(F)F)cc2)nc2cc(Oc3ccnc(-c4ncc(C(F)(F)F)[nH]4)c3)ccc21 [RAF265] (drug 1000 nM) | -9.23 | 7.76 | 22.5 | 11.6 | 2.38 | -4.76 | -1.02 | 12.4 | -5.82 | -2.02 | -1.12 | 4.22 | 2.98 | -5.31 | 9 |
| CNC(=O)c1ccc(N2C(=S)N(c3ccc(C#N)c(C(F)(F)F)c3)C(=O)C23CCC3)cc1F [RD162] (drug 10000 nM) | -4.36 | -3.06 | 3.92 | 1.22 | -4.4 | 3.37 | 2.17 | -17.8 | 17.8 | -8.95 | 8.98 | 13.8 | 3.39 | 3.13 | 13.7 |
| O=C(c1ccc(OCCN2CCCCC2)cc1)c1c(-c2ccc(O)cc2)sc2cc(O)ccc12 [Raloxifene  HCl] (drug 10000 nM) | 22.8 | 54 | 12.6 | 2.72 | 11.9 | 13.3 | 9.11 | 11.3 | 9.48 | 33.2 | 33.8 | 44.3 | 25.9 | 21.5 | 34.8 |
| COc1cc(F)c(F)c(Nc2ccc(I)cc2F)c1NS(=O)(=O)C1(C[C@H](O)CO)CC1 [Refametinib (RDEA119)] (drug 10000 nM) | 9.83 | 54.3 | 31.2 | 10.6 | 20.6 | 14.9 | 8.84 | 24.3 | 12.7 | 44.2 | 39.9 | 36.3 | 22 | 33.1 | 14 |
| CNC(=O)c1cc(Oc2ccc(NC(=O)Nc3ccc(Cl)c(C(F)(F)F)c3)c(F)c2)ccn1 [Regorafenib (BAY 73-4506)] (drug 10000 nM) | 38 | 73 | 31.3 | 32.6 | 17 | 18.3 | 22.4 | 29.1 | 18.2 | 52.7 | 33.5 | 93.1 | 16.3 | 18.1 | 76.2 |
| CO[C@H]1C[C@@H]2CC[C@@H](C)[C@@](O)(O2)C(=O)C(=O)N2CCCC[C@H]2C(=O)O[C@H]([C@H](C)C[C@@H]2CC[C@@H](OP(C)(C)=O)[C@H](OC)C2)CC(=O)[C@H](C)/C=C(\C)[C@@H](O)[C@@H](OC)C(=O)[C@H](C)C[C@H](C)/C=C/C=C/C=C/1C [Ridaforolimus] (drug 100 nM) | 19.8 | 6.43 | 33.3 | 39.5 | 37.8 | 30.1 | 35.9 | 33.4 | 21.6 | 49.7 | 37.1 | 23.2 | 28.2 | 17.7 | 22 |
| N[C@@H](CSC(c1ccccc1)(c1ccccc1)c1ccccc1)C(=O)O [S-trityl-L-cysteine] (drug 40000 nM) | -1.05 | 23.9 | 4.09 | 3.17 | 9.84 | 13 | 4.16 | 2.31 | 4.34 | 0.988 | 18.1 | 23.3 | 4.25 | -5.14 | -5.53 |
| CC(C)(C)c1cnc(CSc2cnc(NC(=O)C3CCNCC3)s2)o1 [SNS-032] (drug 10000 nM) | 10.3 | 33.1 | 49.1 | 52.6 | 42.4 | 43.3 | 45.3 | 22.4 | 4.07 | 47.4 | 51.2 | 88.7 | 32 | 31.3 | 87.2 |
| CN1CCN(CCOc2cc(OC3CCOCC3)c3c(Nc4c(Cl)ccc5c4OCO5)ncnc3c2)CC1 [Saracatinib] (drug 10000 nM) | 50.3 | 94.4 | 36.6 | -17.9 | -37.6 | -19.4 | -10.5 | 17.5 | -7.13 | 25.2 | 15 | 100 | 27.9 | 4.6 | 100 |
